Calls of active or inactive are those of the source. The rule behind the calls is not given here.
Key:
[1] = target: Sphingosine 1-phosphate receptor 1 (Homo sapiens) (UniProt P21453); assay: Agonist activity at sphingosine-1-phosphate receptor in human SH-SY5Y cells assessed as increase in cAMP level at EC10 by direct immunoassay; format: functional, cell-based
[2] = Cytotoxicity against human SH-SY5Y cells measured after 24 hrs by crystal-violet staining based assay; format: toxicity, cell-based
[3] = Cytotoxicity against human SK-N-SH cells measured after 24 hrs by crystal-violet staining based assay; format: toxicity, cell-based
[4] = Cytotoxicity against human U118MG cells measured after 24 hrs by crystal-violet staining based assay; format: toxicity, cell-based; settings: u-118-mg
[5] = target: Sphingosine 1-phosphate receptor 1 (Homo sapiens) (UniProt P21453); assay: Agonist activity at sphingosine-1-phosphate receptor human SK-N-SH cells assessed as increase in cAMP level at EC10 by direct immunoassay; format: functional, cell-based
[6] = target: Sphingosine 1-phosphate receptor 1 (Homo sapiens) (UniProt P21453); assay: Agonist activity at sphingosine-1-phosphate receptor in human U118MG cells assessed as increase in cAMP level at EC10 by direct immunoassay; format: functional, cell-based; settings: U-118-MG
[7] = target: Sphingosine 1-phosphate receptor 1 (Homo sapiens) (UniProt P21453); assay: Agonist activity at sphingosine-1-phosphate receptor (unknown origin) expressed in HEK293 cells assessed as increase in cAMP level at EC10 after 18 hrs by CRE-responsive renilla luciferase reporter gene assay; format: functional, cell-based
SH-SY5Y [8] = assay: Effect on PMP22 mRNA expression in human SH-SY5Y cells at EC10 by qPCR method relative to beta-actin; format: functional
SH-SY5Y [9] = assay: Effect on CCL2 mRNA expression in human SH-SY5Y cells at EC10 by qPCR method relative to beta-actin; format: functional
SH-SY5Y [10] = assay: Effect on CXCL10 mRNA expression in human SH-SY5Y cells at EC10 by qPCR method relative to beta-actin; format: functional
SH-SY5Y [11] = assay: Effect on TNF mRNA expression in human SH-SY5Y cells at EC10 by qPCR method relative to beta-actin; format: functional
SH-SY5Y [12] = assay: Effect on VCAM1 mRNA expression in human SH-SY5Y cells at EC10 by qPCR method relative to beta-actin; format: functional
SH-SY5Y [13] = assay: Effect on TNFRSF1A mRNA expression in human SH-SY5Y cells at EC10 by qPCR method relative to beta-actin; format: functional
SH-SY5Y [14] = assay: Effect on NFKB1 mRNA expression in human SH-SY5Y cells at EC10 by qPCR method relative to beta-actin; format: functional
SH-SY5Y [15] = assay: Effect on ADCY5 mRNA expression in human SH-SY5Y cells at EC10 by qPCR method relative to beta-actin; format: functional
SH-SY5Y [16] = assay: Effect on ADORA2A mRNA expression in human SH-SY5Y cells at EC10 by qPCR method relative to beta-actin; format: functional
SH-SY5Y [17] = assay: Effect on GNAS mRNA expression in human SH-SY5Y cells at EC10 by qPCR method relative to beta-actin; format: functional
SH-SY5Y [18] = assay: Effect on S1PR1 mRNA expression in human SH-SY5Y cells at EC10 by qPCR method relative to beta-actin; format: functional
SH-SY5Y [19] = assay: Effect on DRD2 mRNA expression in human SH-SY5Y cells at EC10 by qPCR method relative to beta-actin; format: functional
U-118-MG [20] = assay: Effect on PMP22 mRNA expression in human U118MG cells at EC10 by qPCR method relative to beta-actin; format: functional
U-118-MG [21] = assay: Effect on IL10 mRNA expression in human U118MG cells at EC10 by qPCR method relative to beta-actin; format: functional
U-118-MG [22] = assay: Effect on IL6 mRNA expression in human U118MG cells at EC10 by qPCR method relative to beta-actin; format: functional
U-118-MG [23] = assay: Effect on TNF mRNA expression in human U118MG cells at EC10 by qPCR method relative to beta-actin; format: functional
U-118-MG [24] = assay: Effect on ICAM1 mRNA expression in human U118MG cells at EC10 by qPCR method relative to beta-actin; format: functional
U-118-MG [25] = assay: Effect on VCAM1 mRNA expression in human U118MG cells at EC10 by qPCR method relative to beta-actin; format: functional
U-118-MG [26] = assay: Effect on MMP9 mRNA expression in human U118MG cells at EC10 by qPCR method relative to beta-actin; format: functional
U-118-MG [27] = assay: Effect on NFKB1 mRNA expression in human U118MG cells at EC10 by qPCR method relative to beta-actin; format: functional
U-118-MG [28] = assay: Effect on ADCY5 mRNA expression in human U118MG cells at EC10 by qPCR method relative to beta-actin; format: functional
U-118-MG [29] = assay: Effect on ADORA2A mRNA expression in human U118MG cells at EC10 by qPCR method relative to beta-actin; format: functional
U-118-MG [30] = assay: Effect on GNAS mRNA expression in human U118MG cells at EC10 by qPCR method relative to beta-actin; format: functional
U-118-MG [31] = assay: Effect on S1PR1 mRNA expression in human U118MG cells at EC10 by qPCR method relative to beta-actin; format: functional
SK-N-SH [32] = assay: Effect on PMP22 mRNA expression in human SK-N-SH cells at EC10 by qPCR method relative to beta-actin; format: functional
SK-N-SH [33] = assay: Effect on CCL2 mRNA expression in human SK-N-SH cells at EC10 by qPCR method relative to beta-actin; format: functional
SK-N-SH [34] = assay: Effect on IL10 mRNA expression in human SK-N-SH cells at EC10 by qPCR method relative to beta-actin; format: functional
SK-N-SH [35] = assay: Effect on IL6 mRNA expression in human SK-N-SH cells at EC10 by qPCR method relative to beta-actin; format: functional
SK-N-SH [36] = assay: Effect on TNF mRNA expression in human SK-N-SH cells at EC10 by qPCR method relative to beta-actin; format: functional
SK-N-SH [37] = assay: Effect on EPHA1 mRNA expression in human SK-N-SH cells at EC10 by qPCR method relative to beta-actin; format: functional
SK-N-SH [38] = assay: Effect on TNFRSF1A mRNA expression in human SK-N-SH cells at EC10 by qPCR method relative to beta-actin; format: functional
SK-N-SH [39] = assay: Effect on NFKB1 mRNA expression in human SK-N-SH cells at EC10 by qPCR method relative to beta-actin; format: functional
SK-N-SH [40] = assay: Effect on ADCY5 mRNA expression in human SK-N-SH cells at EC10 by qPCR method relative to beta-actin; format: functional
SK-N-SH [41] = assay: Effect on ADORA2A mRNA expression in human SK-N-SH cells at EC10 by qPCR method relative to beta-actin; format: functional
SK-N-SH [42] = assay: Effect on GNAS mRNA expression in human SK-N-SH cells at EC10 by qPCR method relative to beta-actin; format: functional
SK-N-SH [43] = assay: Effect on S1PR1 mRNA expression in human SK-N-SH cells at EC10 by qPCR method relative to beta-actin; format: functional
SK-N-SH [44] = assay: Effect on DRD2 mRNA expression in human SK-N-SH cells at EC10 by qPCR method relative to beta-actin; format: functional

Sphingosine 1-phosphate receptor 1 (Homo sapiens), sequence (P21453 whole entry): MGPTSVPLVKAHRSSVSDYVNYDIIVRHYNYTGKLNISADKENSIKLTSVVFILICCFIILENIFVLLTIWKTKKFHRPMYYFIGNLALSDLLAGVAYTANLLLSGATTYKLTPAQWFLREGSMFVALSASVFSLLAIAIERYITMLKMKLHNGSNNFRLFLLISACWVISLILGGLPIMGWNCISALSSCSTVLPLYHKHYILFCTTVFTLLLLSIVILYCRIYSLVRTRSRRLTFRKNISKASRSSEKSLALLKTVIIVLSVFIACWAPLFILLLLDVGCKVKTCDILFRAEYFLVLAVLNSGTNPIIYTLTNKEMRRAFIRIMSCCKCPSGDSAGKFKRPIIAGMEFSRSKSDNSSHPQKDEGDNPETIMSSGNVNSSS

Activity [1]: Active | Activity [5]: Active | Activity [6]: Active | Activity [7]: Active
Structure (SMILES): CCCCCCCCn1nnnc1CCC(N)(CO)CO.Cl
EC10 [2]: 450 nM | EC10 [3]: 370 nM | EC10 [4]: 540 nM | fold change (FC) (SH-SY5Y [8]): -3.5921 | fold change (FC) (SH-SY5Y [9]): -3.0787 | fold change (FC) (SH-SY5Y [10]): -3.4279 | fold change (FC) (SH-SY5Y [11]): -3.2642 | fold change (FC) (SH-SY5Y [12]): -5.2706 | fold change (FC) (SH-SY5Y [13]): -6.2787 | fold change (FC) (SH-SY5Y [14]): -3.8433 | fold change (FC) (SH-SY5Y [15]): -5.9067 | fold change (FC) (SH-SY5Y [16]): -6.5966 | fold change (FC) (SH-SY5Y [17]): -8.1531 | fold change (FC) (SH-SY5Y [18]): -4.2848 | fold change (FC) (SH-SY5Y [19]): -3.3881 | fold change (FC) (U-118-MG [20]): -5.1248 | fold change (FC) (U-118-MG [21]): -2.5669 | fold change (FC) (U-118-MG [22]): -4.7651 | fold change (FC) (U-118-MG [23]): -5.8487 | fold change (FC) (U-118-MG [24]): -5.127 | fold change (FC) (U-118-MG [25]): -3.8654 | fold change (FC) (U-118-MG [26]): -4.4691 | fold change (FC) (U-118-MG [27]): -2.6004 | fold change (FC) (U-118-MG [28]): -5.787 | fold change (FC) (U-118-MG [29]): -5.0641 | fold change (FC) (U-118-MG [30]): -2.9212 | fold change (FC) (U-118-MG [31]): -4.1312 | fold change (FC) (SK-N-SH [32]): -4.1464 | fold change (FC) (SK-N-SH [33]): -8.981 | fold change (FC) (SK-N-SH [34]): -7.7375 | fold change (FC) (SK-N-SH [35]): -11.9743 | fold change (FC) (SK-N-SH [36]): -7.8456 | fold change (FC) (SK-N-SH [37]): -7.9001 | fold change (FC) (SK-N-SH [38]): -3.6537 | fold change (FC) (SK-N-SH [39]): -6.9253 | fold change (FC) (SK-N-SH [40]): -4.4983 | fold change (FC) (SK-N-SH [41]): -5.915 | fold change (FC) (SK-N-SH [42]): -7.631 | fold change (FC) (SK-N-SH [43]): -4.3001 | fold change (FC) (SK-N-SH [44]): -3.8822

Source: ChEMBL document CHEMBL3872249, “Computer design, synthesis, and bioactivity analyses of drugs like fingolimod used in the treatment of multiple sclerosis” (Bioorg Med Chem, 2017)
